The source of these data is PMC4474691, “Leukemia-Associated Mutations in Nucleophosmin Alter Recognition by CRM1: Molecular Basis of Aberrant Transport” (PLoS ONE, 2015).

Assay [1] has as its target T1, CRM1^HA (Mus musculus, UniProt Q6P5F9, L431A/V430A/V432A).
T1 construct: His-ZZ (cleaved yes); made in house; host or cells: Escherichia coli BL21-CodonPlus (DE3)
Nature of the assay: Isothermal titration calorimetry, CRM1^HA / NES. The assay is classed as binding. The note with it: for binding response: titrated onto CRM1^HA, result in words. On the procedure:
Isothermal titration calorimetry (ITC)
ITC measurements were carried out using a VIP-ITC MicroCalorimeter (MicroCal, Inc., Northampton, MA). TFP and YFP constructs, as well as CRM1^HA, were dialyzed in a buffer containing 20 mM HEPES, pH 7.4, 50 mM NaCl, 1 mM TCEP, 1 mM MgCl2, and degassed prior to the experiment. Untagged peptides (AS: QDLCLAVEEVSLRK, AL: EAIQDLCLAVEEVSLRK, ES: QDLWQSLAQVSLRK and EL: EAIQDLWQSLAQVSLRK), N-acetylated and 95% pure, were purchased from Proteogenix (Schiltigheim, France) and resuspended in the ITC buffer. Measurements were performed at 20°C. TFP-NES, YFP-NES or NES peptides at 35–180 μM were titrated onto CRM1^HA at 2–14 μM. Injections of 6 μL were performed at 320 seconds interval (the first injection always was of 1 μL and is not considered in data analysis). To determine the thermodynamic parameters of NPM / importin interaction, importin α, importin Δα or importin α/β at 45–60 μM were titrated onto NPM (1–1.2 μM pentamer) in 50 mM Tris/HCl, pH 7.5, 100 mM NaCl, 2 mM TCEP, and 10% glycerol. […] “Reverse” titrations, where 20–30 μM NPM was titrated onto 7–10 μM of the different importins were also performed and yielded similar results.
The reaction heat of each injection is related to the calorimetric enthalpy of binding, ΔH^0. The binding isotherms, ΔH^0 vs. molar ratio, were analyzed with an independent binding sites model using MicroCal Origin software. The fit of the binding curve yields the binding constant KA (KD = 1/KA) and the enthalpy ΔH^0 of the binding reaction. The Gibbs free energy of binding ΔG^0 and the entropy ΔS^0 are determined from the basic thermodynamic expressions: ΔG^0 = -RTlnKA = ΔH^0−TΔS^0, where R and T are the gas constant and the absolute temperature, respectively.
Fig 5 Analysis of CRM1^HA/TFP-NES interaction by ITC. Isothermal titration of CRM1^HA with TFP-mutE(NES). […] The titration of negative control TFP-Cter (180 μM) onto CRM1^HA (14 μM) (circles) is also shown for comparison.
(In ITC the heat of successive injections is recorded.)

Another assay relates to nuclear export. The note with it: in vivo nuclear export assay; cited from earlier work. The text has this: Two sequence motifs in the core domain of NPM (residues 42–61 and 94–102) (Fig 1) have been investigated as candidate NESs. In addition, we have detected a further putative NES in the C-terminal region (see below). However, it is still unclear to what extent any of these sequences represents NPM physiological NESs. […] It is therefore not surprising that NPM deregulation is associated to cancer. NPM is overexpressed in several solid tumors (such as gastric, colon, ovarian, prostate cancer). In addition, small insertions and translocations affecting NPM1 gene, encoding NPM, are characteristic of certain hematological disorders. In fact, NPM1 is the most frequently mutated gene in adult acute myeloid leukemia (AML). […] The higher affinity of mutE(NES) for CRM1^HA is consistent with its stronger export activity previously observed using in vivo nuclear export assays. […] Thus, the ranking of in vitro CRM1^HA affinity (PKI(NES) (KD 579 n ...

For assay [2], the target named is T1, CRM1^HA. Nature of the assay: Fluorescence anisotropy binding assay, CRM1^HA. The note with it: 0–60 μM CRM1^HA, 25°C. On the procedure:
Fluorescence anisotropy binding assays
To estimate CRM1 binding affinities for NES motifs we monitored binding with a fluorescence-polarization assay based on previously described approaches. The increase in fluorescence anisotropy of TFP/YFP when the TFP/YFP-NES construct (50 nM) binds to 0–60 μM CRM1 (either CRM^HA or wild type) was recorded at 25°C with a 8100 SLM-Aminco spectrofluorometer in buffer 20 mM Tris/HCl, pH 7.4, 50 mM NaCl, 5 mM DTT, 2 mM MgCl2. Excitation and emission wavelengths were 463, 500 nm for TFP and 463, 533 nm for YFP, and slits width 4 and 8 nm, respectively.
Fig 4 Binding of CRM1 to TFP-NES constructs. (A) Scheme of the engineered TFP constructs, showing the sequence of the NES motifs. Φ residues are highlighted in red. (B) Titration of CRM1 onto the different TFP constructs (50 nM), at 25°C, in buffer 20 mM Tris/HCl, pH 7.4, 50 mM NaCl, 5 mM DTT, 2 mM MgCl2: Left panel: Binding of CRM1^HA (solid symbols) or wild type CRM1 (empty symbols) to TFP-PKI(NES). Right panel: Binding of CRM1^HA to TFP-mutE(NES) (triangles) and TFP-mutA(NES) (squares). Fraction bound was calculated from the relative increase in fluorescence anisotropy of TFP (λexc 463 nm, λem 500 nm). Error bars correspond to at least three measurements per CRM1 concentration.
We next used the TFP-(NES) constructs to monitor CRM1^HA binding to each motif, using the change in fluorescence anisotropy upon complex formation as a readout (Fig 4B), as previously described. […] The different nature of the fluorescent tag, and/or the linker between the fluorescent protein and the NES (2 residues longer in the YFP-PKI construct) could explain the discrepancy. […] To isolate the CRM1 / NES interaction under study from the influence of the tag protein, we have also conducted binding assays with peptides corresponding to the NES motifs (see below).
For orientation: In fluorescence polarisation assays a small probe gives low polarisation when free and higher when bound to something large.

Assay [3] concerns endogenous NPM in HEK293T cells. Put plainly: Localization of endogenous NPM in HEK293T cells. Particulars: hydroxyurea 4 mM 24 h (data not shown). The assay is classed as cell-based, human. The protocol:
(§1) Cell culture, transfection, treatment and imaging
(§2) Human embryonic kidney 293T (HEK293T) and HeLa cells (ECACC) were grown in Dulbecco’s modified Eagle’s medium, supplemented with 10% fetal bovine serum, 100 units/ml penicillin and 100 μg/ml streptomycin (all from Invitrogen). The cells were seeded onto sterile glass coverslips in 12-well trays 24 h before transfection. Transfections were carried out with XtremeGENE 9 (Roche) following the manufacturer’s protocol. Treatment of cells with the different drugs was done at the indicated final concentrations and time periods: Actinomycin D (ActD, Sigma) at 5 μg / mL for 3 h, and hydroxyurea (HU, Sigma) at 4 mM for 24 h.
Cells were fixed, either 20 or 42 h after transfection, with 3.7% formaldehyde in PBS for 30 min, then treated with 0.2% Triton X-100 in PBS for 10 min, for membrane permeabilization and incubated for 1 h in blocking solution (3% BSA in PBS). In YFP-CRM1 overexpression experiments, endogenous NPM was detected with anti-B23 (Santa Cruz Biotechnology FC82291, dilution 1:800), Myc3-NPM with anti-Myc (Cell Signalling 2276, dilution 1:2000) and Flag-SurvNLS with anti-Flag (Sigma F1704, dilution 1:300). Primary antibodies were diluted in blocking solution. In all cases, the secondary antibody was Alexa Fluor 594 anti-mouse (Invitrogen A11005, dilution 1:400). Washing between the different steps were carried out with PBS. […] Slides were examined using a Zeiss Axioskop fluorescence microscope. For quantification, at least 200 cells were “blind counted” and classified as having nuclear (or nucleolar), nuclear/cytoplasmic or cytoplasmic localization of NPM (or the Flag-SurvNLS control). […]
Fig 2 Localization of endogenous and ectopically expressed NPM and effect of treatment with actinomycin D (ActD) and CRM1 overexpression in HEK293T cells. […] Green denotes YFP (Y) or YFP-CRM1 (YC) fluorescence; red, immunostaining of endogenous NPM; and blue, DAPI fluorescence. […] More than 200 cells were “blind” counted. […] (D) Quantification of cytoplasmic (C) or nuclear and cytoplasmic (N/C) localization of overexpressed Flag-SurvNLS and Myc-NPM. […]

Another assay concerns Myc-NPM in HEK293T cells. Put plainly: Localization of Myc-NPM in HEK293T cells. The format is cell-based, human. The note with it: YFP-CRM1 co-expression, hydroxyurea 4 mM 24 h (increase from 20%). On the procedure:
as §1, §2
Cells were fixed, either 20 or 42 h after transfection, with 3.7% formaldehyde in PBS for 30 min, then treated with 0.2% Triton X-100 in PBS for 10 min, for membrane permeabilization and incubated for 1 h in blocking solution (3% BSA in PBS). In YFP-CRM1 overexpression experiments, endogenous NPM was detected with anti-B23 (Santa Cruz Biotechnology FC82291, dilution 1:800), Myc3-NPM with anti-Myc (Cell Signalling 2276, dilution 1:2000) and Flag-SurvNLS with anti-Flag (Sigma F1704, dilution 1:300). Primary antibodies were diluted in blocking solution. In all cases, the secondary antibody was Alexa Fluor 594 anti-mouse (Invitrogen A11005, dilution 1:400). […] Slides were examined using a Zeiss Axioskop fluorescence microscope. […]

[4] abbreviates: ITC, NES ligand (35–180 μM) titrated onto CRM1^HA (2–14 μM), 20°C, 20 mM HEPES pH 7.4, 50 mM NaCl, 1 mM TCEP, 1 mM MgCl2, independent binding sites model, read-out: KD.
The mark [5] stands for this setting: TFP/YFP-NES construct 50 nM, 20 mM Tris/HCl pH 7.4, 50 mM NaCl, 5 mM DTT, 2 mM MgCl2, at least three measurements per CRM1 concentration, read-out: apparent KD (C50).

Where no end group is shown, it is not given here.

T1 sequence (Q6P5F9 1-1062 V430A/L431A/V432A limits assumed): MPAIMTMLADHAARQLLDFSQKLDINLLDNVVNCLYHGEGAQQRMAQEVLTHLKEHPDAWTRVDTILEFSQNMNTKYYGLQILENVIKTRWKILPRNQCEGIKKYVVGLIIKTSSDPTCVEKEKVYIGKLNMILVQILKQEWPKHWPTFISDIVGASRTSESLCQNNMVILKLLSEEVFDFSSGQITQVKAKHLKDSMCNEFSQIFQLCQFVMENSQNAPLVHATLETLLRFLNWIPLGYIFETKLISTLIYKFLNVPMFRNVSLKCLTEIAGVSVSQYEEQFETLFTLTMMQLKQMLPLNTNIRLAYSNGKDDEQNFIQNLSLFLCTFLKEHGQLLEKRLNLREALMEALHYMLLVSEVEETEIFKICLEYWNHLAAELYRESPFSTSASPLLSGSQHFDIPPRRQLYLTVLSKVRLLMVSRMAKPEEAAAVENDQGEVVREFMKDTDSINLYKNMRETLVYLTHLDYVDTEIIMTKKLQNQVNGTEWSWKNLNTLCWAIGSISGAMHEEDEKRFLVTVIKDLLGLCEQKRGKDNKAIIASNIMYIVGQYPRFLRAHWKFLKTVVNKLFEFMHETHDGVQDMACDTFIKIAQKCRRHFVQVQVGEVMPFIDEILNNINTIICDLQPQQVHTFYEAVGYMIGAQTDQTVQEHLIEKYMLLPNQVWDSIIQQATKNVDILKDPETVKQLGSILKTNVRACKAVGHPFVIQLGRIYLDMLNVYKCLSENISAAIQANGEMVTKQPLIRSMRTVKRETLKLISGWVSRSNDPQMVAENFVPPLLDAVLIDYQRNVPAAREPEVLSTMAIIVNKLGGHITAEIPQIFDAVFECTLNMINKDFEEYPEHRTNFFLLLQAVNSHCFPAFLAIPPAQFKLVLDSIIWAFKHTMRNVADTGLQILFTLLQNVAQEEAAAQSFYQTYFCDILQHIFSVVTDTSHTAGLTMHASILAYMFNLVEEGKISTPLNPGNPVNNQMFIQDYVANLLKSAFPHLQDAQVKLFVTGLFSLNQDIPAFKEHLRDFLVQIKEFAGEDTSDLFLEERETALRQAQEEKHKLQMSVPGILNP

As to Ac-EAIQDLCLAVEEVSLRK [peptide AL], at CRM1^HA [1], the Kd turned out to be 57 ± 10 nM.

As to “94–102: candidate NES motif in the core domain of NPM (ITPPVVLRL; UniProt P06748 94-102, looked up, fragment)”, the “NES export activity in cells” value in the assay with nuclear export is “border-line activity”.

Consider Ac-EAIQDLWQSLAQVSLRK [peptide EL], for which, at CRM1^HA [1] (setting [4]), the Kd was determined as 31 ± 1 nM.

Take “residues 42–49: candidate NES motif in the core domain of NPM (LSLRTVSL; UniProt P06748 42-49, looked up, fragment)”: the “NES export activity in cells” value in the assay with nuclear export was “border-line activity”.

For the compound “LALKLAGLDI [PKI(NES), in b48 the value is that of TFP-PKI(NES), reference compound]”, on CRM1^HA [2] (setting [5]), the Kd was found to be 579 nM.

Regarding “DLWQWRKSL [TFP-Cter, negative control construct containing the last 9 C-terminal residues of wild type NPM]”, the binding response entry on CRM1^HA [1] (ITC, 20°C, 20 mM HEPES pH 7.4) is given as “small exothermic peaks (Fig 5), which may reflect a non-specific binding”.

“QDLCLAVEEVSLRK [peptide AS, short version of the NES motif of mutant A]”: the binding response result at CRM1^HA [1] (ITC, 20°C, 20 mM HEPES pH 7.4) is “showed no binding in our conditions”.

On to `NC(=O)NO` [HU, hydroxyurea], for which the “effect of HU on endogenous NPM localization” value in assay [3] is given as “could not be observed on endogenous NPM”. Also, the “cells with cytoplasmic relocation of Myc-NPM, YFP-CRM1 co-expression with HU” value in the assay on Myc-NPM in HEK293T cells was 50%.

In the case of “DLWQSLAQVSLRK [mutE(NES), acquired NES motif of AML-associated NPM mutant E]”, the “relative affinity for CRM1^HA, mutant E NES vs mutant A NES” value at CRM1^HA [1] (anisotropy, ITC with TFP constructs and ITC with untagged peptides) is “approximately double that of mutant A”. Moreover, the “NES export activity in cells” value with nuclear export was “much higher than that of mutant A NES, and comparable to the export activity of PKI(NES)”.

For Ac-QDLWQSLAQVSLRK [peptide ES], the Kd on CRM1^HA [1] (setting [4]) amounted to 76 ± 1 nM.

With “DLWQSLAQVSLRK [TFP-mutE(NES), NES of NPM mutant E as C-terminal fusion to teal fluorescent protein]”, the Kd at CRM1^HA [1] (setting [4]) is 1040 ± 41 nM; on CRM1^HA [1] (ITC, TFP-NES titrated onto CRM1^HA, 20°C, 20 mM HEPES pH 7.4, rounded, read-out: KD), 1000 nM; at CRM1^HA [2] (TFP-NES 50 nM, pH 7.4, rounded, read-out: apparent KD) it was 2200 nM; on CRM1^HA [2] (setting [5]), 2160 ± 556 nM. Besides, on CRM1^HA [1] (ITC, NES ligand titrated onto CRM1^HA, 20°C, 20 mM HEPES pH 7.4), the ΔH is -15.4 ± 3.1 kcal/mol. Moreover, on CRM1^HA [1] (ITC, NES ligand titrated onto CRM1^HA, 20°C, 20 mM HEPES pH 7.4, from ΔG = ΔH − TΔS), the “-TΔS” value is 7.4 ± 3.1 kcal/mol. On CRM1^HA [1] (ITC, NES ligand titrated onto CRM1^HA, 20°C, 20 mM HEPES pH 7.4, low n of peptides might result from limited solubility), the “n (binding stoichiometry)” value worked out at 0.80 ± 0.19. Besides, the ΔG at CRM1^HA [1] (ITC, NES ligand titrated onto CRM1^HA, 20°C, 20 mM HEPES pH 7.4, ΔG = -RTlnKA) is recorded as -8.0 ± 0.0 kcal/mol.
